Measured values taken from US12599599B2, “Anti-inflammatory, anti-cancer, and anti-angiogenic compounds, pharmaceutical compositions, and methods of making and using thereof” (MEDICON PHARMACEUTICALS, INC., priority 2017, dated 2026).

How the values were obtained:
[1] = Ocular pharmacokinetics and biodistribution after eye drops; assay type: in vivo, New Zealand rabbits; parameters: unit not given here; conditions: rabbit, 20% eye drops
Method: The pharmacokinetics and biodistribution of compounds 1, 2, and 5 in the eye of rabbits were determined. Each of these compounds was dissolved in phosphate buffered saline (PBS) and used as eye drops. The eye drops were sterilized before application to rabbits by filtration through a 0.2 μm membrane. […] The eyes were harvested and eye tissues and the lacrimal glands were dissected, homogenized and the test compounds were extracted by acetonitrile and analyzed by HPLC, as described under Compound Synthesis described herein. Compounds 1 and 2 were detected at 328 nm, and compound 5 at 260 nm. […] All three compounds can unexpectedly, readily, and rapidly reach the posterior chamber of the eye.

SKOV-3 ovarian cancer = test: 24 hr growth inhibition of cell line; assay type: cell-based; conditions: Homo sapiens, SK-OV-3, 24 h
Method: (§1) The therapeutic efficacy of compounds 2, 5, and 6 was assessed in human and murine cell lines of varied tissue origin, and their 24 hr 50% inhibitory concentration was determined by following standard methodologies. Typical results are shown in the Table 5, indicating a broad anticancer effect.
Ovarian cancer cells were studied in greater detail using the following ovarian cancer cell lines: SKOV-3, OVCAR3, A2780 (and two cell lines derived from it, A2870cis that is resistant to cisplatin, and A2870ADR that is resistant to doxorubicin (Adriamycin)), and HEY (sensitive to paclitaxel (Taxol), and its derivative HEY-T30 that is Taxol-resistant). […]

[2] = Biodistribution in human eyes removed from deceased donors; assay type: in vitro ADME; conditions: human eye, 10% (w/v) solution, then 1 h incubation
Method: Compound 6 3% (formulated in polyethylene glycol 155; Tween 80% 1%; Kolliphor EL 10%, made to 100% with normal saline; pH 7.2) was injected iv as a single dose of 30 mg/kg. Its retina levels were 4.9 μM and 1 μM at 1 h and 2 h, respectively (the corresponding sclera levels were similar, 3.2 μM and 2.0 μM). When compound 6 was given ip (in corn oil) as a single dose of 100 mg/kg its retina levels became detectable at 3 h (3.2 μM) and remained at 2.8 μM at 4 h and 6 h. Similarly, after its single topical administration, compound 6 3% (formulated in vitamin E TPGS 16%, mannitol 3.2% boric acid 1.2% and polyquad 0.005%, pH 7.2) produced retinal levels of 2.1 μM at 4 h. The biodistribution of compound 2 in human eyes that were recently removed from deceased donors and kept on ice until used within hours was also evaluated. In this study, compound 2 was dissolved in pure water, its pH was adjusted to 4.8±0.1 and its osmolarity to 290 mOsm. The final concentration of compound 2 was 10% (w/v).
The anterior surface of each was brought into contact with the above solution of compound 2 at 37° C.; the solution level was about 3 mm above the cornea edge. After 1 minute or 10 minutes the eyes were rinsed thoroughly with PBS, incubated for 1 h, and dissected to harvest the retina, choroid, aqueous humor, ciliary body, iris and cornea, which ere assayed by HPLC. As shown in the below table, compound 2 did reach the posterior segment of the eye.

AGS gastric cancer = test: 24 hr growth inhibition of cell line; assay type: cell-based; conditions: Homo sapiens
Method: as §1

A549 lung cancer = test: 24 hr growth inhibition of cell line; assay type: cell-based; conditions: Homo sapiens
Method: as §1

HCT116 colon cancer = test: 24 hr growth inhibition of cell line; assay type: cell-based; conditions: Homo sapiens, HCT-116, 24 h
Method: as §1

RAW264 murine macrophage = test: 24 hr growth inhibition of cell line; assay type: cell-based; conditions: Mus musculus, RAW264.7, 24 h
Method: as §1

[3] = test system: oxygen-induced retinopathy; test: Mouse model of oxygen-induced retinopathy; assay type: in vivo, C57BL/6 mice; conditions: 10% w/v eye drops 5 times daily, P12 to P17
Method: C57BL/6 mice were reared in 75±2% oxygen air starting on postnatal day 7 (P7) and moved into room air on P12, when they were injected intravitreally with 1 μl of 1% compound 6 solution or vehicle. On P17, the pups were euthanized, both eyes were enucleated and fixed with 4% paraformaldehyde (PFA). Following several intermediate steps, the retina was existed and fixed further with 4% PFA overnight. After appropriate washings, the retina was incubated with 10 μg/ml of FITC-conjugated anti-lectin antibody overnight and retina flat-mounts were prepared on glass slides and evaluated by fluorescence microscopy. The areas of the avascular, neovascular and whole retina were determined using ImageJ software.
In another study, the same mouse model of oxygen-induced retinopathy described above was used. In this study, mice were treated daily with an aqueous solution of compound 2 (pH=4.6, osmolarity=282 mOsm; concentration=10% w/v) from postnatal day 12 to day 17. Compound 2 was administered as one eye drop per eye every 2 hours during the day time for a total of 5 administrations daily. At the end of the study, mice were euthanized and their retinas dissected and studied by immunofluorescence using an antibody against lectin I, isolectin B4 (Vector Laboratories) and evaluated as above.

A2780 xenografts = test: Subcutaneous xenografts in nude mice, platinum sensitive; assay type: in vivo; conditions: compound 5 15 mg/kg/day six days a week ip; cis-platinum 5.5 mg/kg one time a week ip
Method: (§2) To determine whether compound 5 is efficacious against chemotherapy-resistant ovarian cancer, three pairs of sensitive and resistant human ovarian cancer cell lines were grown as subcutaneous xenografts in nude mice and treated as summarized in FIG. 10. These cell lines were: A2780, sensitive to both cis-platinum and Adriamycin (doxorubicin); A2780cis, resistant to cis-platinum; A2780ADR, resistant to Adriamycin: HEY, sensitive to Taxol; HEY-T30, resistant to Taxol. The treatments administered were: vehicle control; compound 5, 15 mg/kg/day six days a week, ip; cis-platinum 5.5 mg/kg, one time a week ip; Adriamycin 3 mg/kg twice a week ip; and Taxol 20 mg/kg twice a week ip.

A2780cis xenografts = test: Subcutaneous xenografts in nude mice, cisplatin resistant; assay type: in vivo; conditions: compound 5 15 mg/kg/day six days a week ip; cis-platinum 5.5 mg/kg one time a week ip
Method: Compound 6 was also efficacious against chemotherapy-resistant ovarian cancer. […] The effect of compound 6 in cisplatin resistant (A2780cis) and doxorubicin (Adriamycin) resistant (A2780ADR) tumors was studied. Briefly, each of these cell lines was subcutaneously inoculated into athymic nude mice and when the tumor size reached 100-200 mm^3, compound 6 150 mg/kg/day or its vehicle were given i.p. After 11 days of treatment, for the cisplatin-resistant tumors the tumor volume of the vehicle group was 2388±127 mm^3 and for compound 6 group 1032±108 mm^3 (mean±SEM; P<0.02); while for the doxorubicin-resistant tumors these values were: vehicle group=1369±337 mm^3 and compound 6 group=396±182 mm^3 (P<0.02).
as §2

HEY-T30 xenografts = test: Synergy with cyclophosphamide, Taxol resistant subcutaneous xenografts; assay type: in vivo, nude mice; conditions: day 21; compound 5 10 mg/kg/day six days a week ip; cyclophosphamide 10 mg/kg six days a week orally; or both
[4] = test system: Ras palmitoylation in A2780 and A2780cis ovarian cancer cells; test: Ras palmitoylation (resin capture, immunoblot); assay type: cell-based, human
Method: FIGS. 18A-18B illustrate the effect of compounds 5 and 6 on K-Ras. FIG. 18A: Compound 6 suppressed of K-Ras activation. Cells with mutant K-Ras were treated with compound 6 1.5×IC50 for the respective time periods. K-Ras activity was determined by Ras pull-down (Thermo Scientific; following vendor instructions). K-Ras activation is suppressed 37% at 1 hr and 88% at 2 hrs compared to respective controls. FIG. 18B: Compound 5 suppressed the palmitoylation of Ras in A2780 and A2780cis (resistant to cisplatin) ovarian cancer cells. Palmitoylation is detected by removing S-palmitate groups from proteins, creating new free thiols (where the palmitic acid group used to be) and capturing the previously S-palmitoylated proteins on a resin, using a commercial kit (Badrilla, Leeds, UK). Ras was detected in the eluate by immunoblot.
This effect may be particularly useful in types of cancer characterized by K-Ras mutation such as, for example, pancreatic, lung and ovarian cancer. FIG. 18A illustrates the inhibition of K-Ras activation by compound 6. […] This property of compound 5 is not shared for example by compound 6 or phosphosulindac.

## CC1=C(CC(=O)N2CCN(CCNS(C)(=O)=O)CC2)c2cc(F)ccc2/C1=C\c1ccc([S+](C)[O-])cc1 (stereo not drawn) [Compound 1]
[1]; 1 hr
  Drug level in Choroid: 4.1
  Drug level in Conjunctiva: 71.6
  Drug level in Cornea: 61.8
  Drug level in Iris: 6.9
  Drug level in Lens: 20.2
  Drug level in Retina: 7.5
  Drug level in Sclera: 10.1
  Drug level in Vitreous: 0.9
[1]; 3 hr
  Drug level in Choroid: 2.1
  Drug level in Conjunctiva: 52.5
  Drug level in Cornea: 16.2
  Drug level in Iris: 7.6
  Drug level in Lens: 4.6
  Drug level in Retina: 1.8
  Drug level in Sclera: 2.5
  Drug level in Vitreous: 0.5

## CCOP(=O)(NCCN1CCN(C(=O)CC2=C(C)/C(=C/c3ccc([S+](C)[O-])cc3)c3ccc(F)cc32)CC1)OCC (stereo not drawn) [Compound 2]
SKOV-3 ovarian cancer
  IC50: 480 µM
[2]; 1 minute exposure
  level in aqueous humor: 1.0 µM
  level in choroid: 425.9 µM
  level in ciliary body: 124.6 µM
  level in cornea: 166.3 µM
  level in iris: 43.1 µM
  level in retina: 12.6 µM
[2]; 10 minutes exposure
  level in aqueous humor: 5.3 µM
  level in choroid: 273.5 µM
  level in ciliary body: 206.9 µM
  level in cornea: 512.6 µM
  level in iris: 10.3 µM
  level in retina: 46.6 µM
AGS gastric cancer
  IC50: 306 µM
A549 lung cancer
  IC50: 400 µM
HCT116 colon cancer
  IC50: 460 µM
RAW264 murine macrophage
  IC50: 160 µM
[1]; 2 hr
  Drug level in Choroid: 5.3
  Drug level in Conjunctiva: 16.1
  Drug level in Cornea: 106.1
  Drug level in Iris: 9.9
  Drug level in Lens: 0.3
  Drug level in Retina: 4.1
  Drug level in Sclera: 50.7
  Drug level in Vitreous: 1.2
[1]; 3 hr
  Drug level in Choroid: 6.4
  Drug level in Conjunctiva: 13.5
  Drug level in Cornea: 46.0
  Drug level in Iris: 9.8
  Drug level in Lens: 4.0
  Drug level in Retina: 1.7
  Drug level in Sclera: 22.4
[3]; vehicle 16.8±1.1
  avascular area of the retina, percentage of the entire retina surface area (mean±SEM): 5.8±0.8%
[3]; vehicle 20.7±3.7
  neovascular area of the retina, percentage of the entire retina surface area (mean±SEM): 9.9±2.2%

## N.N.[Cl][Pt][Cl] [cis-platinum, reference compound]
A2780 xenografts
  growth of platinum-sensitive xenografts: suppressed the growth
A2780cis xenografts
  growth of platinum-resistant xenografts: failed to significantly inhibit tumor growth

## O=P1(N(CCCl)CCCl)NCCCO1 (stereo not drawn) [cyclophosphamide, reference compound]
HEY-T30 xenografts
  inhibition of tumor growth compared to control: 23%

## CCOP(=O)(OCC)OCCCCOC(=O)CC1=C(C)/C(=C/c2ccc([S+](C)[O-])cc2)c2ccc(F)cc21 (stereo not drawn) [phosphosulindac, reference compound]
[4]
  suppression of palmitoylation of Ras: not shared
